Results taken from ChEMBL document CHEMBL1806384, “Identification of benzofuran-4,5-diones as novel and selective non-hydroxamic acid, non-peptidomimetic based inhibitors of human peptide deformylase” (Bioorg Med Chem Lett, 2011).

What was measured:
[1] = target: T1, Peptide deformylase (Escherichia coli) (UniProt Q9JN24); assay: Inhibition of Escherichia coli peptide deformylase at 100 uM after 1 hr by fluorescence polarization based competition assay
T1 sequence (whole entry): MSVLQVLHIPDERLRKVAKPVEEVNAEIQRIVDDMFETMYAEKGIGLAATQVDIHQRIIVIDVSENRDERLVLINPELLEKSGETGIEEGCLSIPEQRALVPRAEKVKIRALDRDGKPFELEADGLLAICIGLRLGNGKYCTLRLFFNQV

[2] = system: Jurkat; assay: Cytotoxicity against human Jurkat cells; format: functional, cell-based
[3] = Cytotoxicity against human Meso47 cells; format: functional, cell-based
[4] = target: T2, Aminopeptidase N (Sus scrofa) (UniProt P15145); assay: Inhibition of porcine kidney microsomal aminopeptidase N at 100 uM after 1 hr by fluorescence polarization based competition assay
T2 sequence (whole entry): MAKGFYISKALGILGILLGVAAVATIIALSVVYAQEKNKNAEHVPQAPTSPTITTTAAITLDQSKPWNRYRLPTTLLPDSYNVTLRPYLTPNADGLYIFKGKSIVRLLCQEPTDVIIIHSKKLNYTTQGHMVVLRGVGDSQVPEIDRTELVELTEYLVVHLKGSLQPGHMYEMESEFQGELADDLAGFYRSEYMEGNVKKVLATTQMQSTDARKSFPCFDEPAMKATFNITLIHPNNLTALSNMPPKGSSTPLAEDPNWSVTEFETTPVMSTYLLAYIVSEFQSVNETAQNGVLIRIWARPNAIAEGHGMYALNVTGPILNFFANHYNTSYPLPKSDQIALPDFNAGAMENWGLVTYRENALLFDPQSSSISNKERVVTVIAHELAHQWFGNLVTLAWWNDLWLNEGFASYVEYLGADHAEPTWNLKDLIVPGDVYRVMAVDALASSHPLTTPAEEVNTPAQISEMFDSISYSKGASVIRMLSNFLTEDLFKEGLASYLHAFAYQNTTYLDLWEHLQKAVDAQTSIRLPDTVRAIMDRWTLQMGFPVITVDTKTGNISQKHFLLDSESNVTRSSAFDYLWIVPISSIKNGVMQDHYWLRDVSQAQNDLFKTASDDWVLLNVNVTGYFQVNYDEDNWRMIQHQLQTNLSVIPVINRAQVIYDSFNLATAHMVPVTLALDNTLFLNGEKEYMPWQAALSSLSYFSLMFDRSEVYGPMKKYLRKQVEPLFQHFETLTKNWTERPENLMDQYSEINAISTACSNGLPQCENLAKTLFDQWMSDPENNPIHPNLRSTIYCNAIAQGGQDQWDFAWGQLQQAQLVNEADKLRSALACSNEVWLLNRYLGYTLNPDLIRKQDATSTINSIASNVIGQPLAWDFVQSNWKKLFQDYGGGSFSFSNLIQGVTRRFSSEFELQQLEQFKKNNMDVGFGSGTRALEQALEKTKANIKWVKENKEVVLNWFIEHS

[5] = target: T3, Peptide deformylase (Escherichia coli, UniProt Q9JN24); assay: Inhibition of Escherichia coli peptide deformylase after 1 hr by fluorescence polarization based competition assay
T3 sequence (Q9JN24 whole entry): T1 sequence (whole entry)

[6] = target: T4, Peptide deformylase, mitochondrial (Homo sapiens, UniProt Q9HBH1); assay: Inhibition of human peptide deformylase after 1 hr by fluorescence polarization based competition assay
T4 sequence (Q9HBH1 whole entry): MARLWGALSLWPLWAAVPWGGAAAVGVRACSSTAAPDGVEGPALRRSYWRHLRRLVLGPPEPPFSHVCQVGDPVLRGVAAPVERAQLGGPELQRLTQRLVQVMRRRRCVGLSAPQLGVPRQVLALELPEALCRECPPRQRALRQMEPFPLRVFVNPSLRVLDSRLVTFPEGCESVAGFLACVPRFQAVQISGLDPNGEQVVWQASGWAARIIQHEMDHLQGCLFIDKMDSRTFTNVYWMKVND

[7] = target: T5, Peptide deformylase, mitochondrial (Homo sapiens) (UniProt Q9HBH1); assay: Inhibition of human peptide deformylase at 100 uM after 1 hr by fluorescence polarization based competition assay
T5 sequence (whole entry): T4 sequence (Q9HBH1 whole entry)

[8] = target: T6, Interstitial collagenase (Homo sapiens) (UniProt P03956); assay: Inhibition of human recombinant MMP1 at 100 uM after 1 hr by fluorescence polarization based competition assay
T6 sequence (whole entry): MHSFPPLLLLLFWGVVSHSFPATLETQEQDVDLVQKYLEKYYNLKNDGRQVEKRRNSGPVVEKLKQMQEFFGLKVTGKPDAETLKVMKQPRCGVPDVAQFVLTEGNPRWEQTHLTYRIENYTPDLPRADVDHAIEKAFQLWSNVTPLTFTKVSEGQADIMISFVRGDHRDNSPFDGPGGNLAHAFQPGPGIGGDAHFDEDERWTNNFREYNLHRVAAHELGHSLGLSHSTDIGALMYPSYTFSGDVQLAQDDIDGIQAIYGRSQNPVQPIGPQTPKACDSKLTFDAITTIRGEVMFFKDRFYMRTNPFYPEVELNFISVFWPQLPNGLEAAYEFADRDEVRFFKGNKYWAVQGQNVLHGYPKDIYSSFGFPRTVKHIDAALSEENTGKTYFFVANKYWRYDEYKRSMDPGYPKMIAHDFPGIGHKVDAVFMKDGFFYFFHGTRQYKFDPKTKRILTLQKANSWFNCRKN

[9] = Cytotoxicity against human ALL3 cells; format: functional, cell-based
[10] = system: MOLT-3; assay: Cytotoxicity against human MOLT3 cells; format: functional, cell-based
[11] = system: HL-60; assay: Cytotoxicity against human HL60 cells; format: functional, cell-based
[12] = system: HL-60; assay: Cytotoxicity against human vincristine-resistant HL60 cells; format: functional, cell-based
[13] = system: Y79; assay: Cytotoxicity against human Y79 cells; format: functional, cell-based
[14] = Cytotoxicity against human CWR22 cells; format: functional, cell-based
[15] = target: T5, Peptide deformylase, mitochondrial (Homo sapiens); assay: Inhibition of human peptide deformylase at 10 uM after 1 hr by fluorescence polarization based competition assay
[16] = system: HEK293; assay: Cytotoxicity against human HEK293 cells; format: cell-based

| Structure (SMILES) | inhibition [1] [%] | IC50 [2] [µM] | IC50 [3] [µM] | inhibition [4] [%] | IC50 [5] [µM] | IC50 [6] [µM] | inhibition [7] [%] | inhibition [8] [%] | IC50 [9] [µM] | IC50 [10] [µM] | IC50 [11] [µM] | IC50 [12] [µM] | IC50 [13] [µM] | IC50 [14] [µM] | inhibition [15] [%] | IC50 [16] [µM] |
| --- | --- | --- | --- | --- | --- | --- | --- | --- | --- | --- | --- | --- | --- | --- | --- | --- |
| COc1ccc(C(=O)c2coc3c2C(=O)C(=O)C=C3Br)cc1 | 26 | 12 | 100 | 64 | > 100 | 15 | 100 | 8 | 35 | 11 | 10 | 38 | 63 | 46 |  |  |
| O=C1C(=O)c2c(C(=O)c3ccccc3)coc2C=C1Br |  |  |  |  |  |  |  |  |  |  |  |  |  |  | 97 |  |
| O=C1C=Cc2occ(C(=O)c3ccccc3)c2C1=O | 32 | 8.1 | 63 | 5 | > 100 |  | 100 | 0 | 22 | 7.3 |  |  |  | 30 |  |  |
| COc1ccc(C(=O)c2coc3c2C(=O)C(=O)C=C3)cc1 | 24 | 8.9 | 100 | 4 | > 100 | 34 | 100 | 6 | 29 | 9.1 | 17 | 27 | 31 | 35 |  | 21 |
| COc1ccc(C(=O)c2coc3c2C(=O)C(=O)C(Br)=C3Br)cc1 | 22 | 55 | 100 | 41 | > 100 | 65 | 100 | 23 | 70 | 40 | 53 | 100 |  | 70 |  | 100 |
| COc1ccc(C(=O)c2coc3c2C(=O)C(=O)C(Br)=C3)cc1 | 5 | 20 |  | 22 | > 100 | 32 | 100 | 26 | 48 | 4 | 48 |  | 100 |  | 90 | 54 |
| COc1ccc(C(=O)c2coc3c2C(=O)C(=O)C(Br)=C3Br)cc1OC | 53 | 28 | 100 | 96 | > 100 | 10 | 100 | 46 | 36 | 25 | 42 | 64 | 100 | 100 |  | 100 |
| Cc1ccc(C(=O)c2coc3c2C(=O)C(=O)C(Br)=C3)cc1 |  |  |  |  |  |  |  |  |  |  |  |  |  |  | 81 |  |
| COc1ccc(C(=O)c2coc3c2C(=O)C(=O)C=C3Cl)cc1 | 13 | 13 | 100 | 68 | > 100 | 16 | 100 | 10 | 47 | 11 | 17 |  | 74 | 59 |  | 40 |
| COc1ccc(C(=O)c2coc3c2C(=O)C(=O)C(Cl)=C3Cl)cc1OC | 63 |  |  | 99 |  | 6.1 | 100 | 46 |  |  |  | 100 |  |  |  | 100 |
| CC(=O)C(C(C)=O)C1=C(Cl)C(=O)C(=O)c2c(C(=O)c3ccc(C)cc3)coc21 |  |  |  |  |  |  |  |  |  |  |  |  |  |  | 75 |  |
| COc1cc(C(=O)c2coc3c2C(=O)C(=O)C(Cl)=C3Cl)cc(OC)c1OC | 27 | 5.9 | 100 | 50 | > 100 | 25 | 100 | 32 | 49 | 7 | 36 | 55 |  |  |  |  |
